# Values of other authors as cited in article PMC7866862, “Screening, Optimization, and Bioavailability Research of Natural Deep Eutectic Solvent Extracts from Radix Pueraria” (Molecules, 2021).
# Assays:
# [1] = set-up: method as in PMID 28165806
# [2] = set-up: method as in PMID 30275390; settings: oral, NSSPE study
compound,measurement,setting,value
"O=c1c(-c2ccc(O)cc2)coc2c([C@@H]3O[C@H](CO)[C@@H](O)[C@H](O)[C@H]3O)c(O)ccc12 [PUE, 8-β-D-glucopyranose-4′,7-dihydroxyisoflavone]",Oral bioavailability of PUE,[1],about 7%
same,Cmax of PUE,[2],0.63417 µg/mL
